Assay results taken from patent publication US20140051744A1, “Markers For Assessing the Susceptibility of Cancer to Survivin-Targeting miRNA Treatment” (The Regents of the University of Colorado, A Body Corporate, priority 2012, published 2014).

Assays:
[1] = tested on: Bcl-xL; test: Western blot of Bcl-xL protein after miRNA mimic transfection; format: cell-based, human; details: SKBR3.B3.1 and SKBR3.B3.2 cells, mimic transfection 24 hrs
Source text: (§1) FIGS. 1A-B. Transfection of the mimics of miR-203 and/or miR-542-3p dramatically increases their expression levels and specifically down-regulates Survivin, but not other functionally related molecules, such as Mcl-1 and Bcl-xL. SKBR3.B3.1 and […] cells were transfected with either control miRNA mimic, or miR-203 mimic, or miR-542-3p mimic alone, or the combination of miR-203 and miR-542-3p mimics for 24 hrs. (FIG. 1A) Cells were collected and subjected to total RNA extraction, inclusive of the small RNA fraction. The expression levels of miR-203 and miR-542-3p were measured by qRT-PCR using TaqMan miRNA assays. All results were normalized with the internal control RNU6B. Bars, SD. […] (FIG. 1B) Cells were collected and subjected to western blot analyses with specific antibodies directed against Survivin, Mcl-1, Bcl-xL, or β-actin. […]
(§2) Western blot analysis. Protein expression levels were determined by western blot analysis as described previously (Wang et al., 2010; Huang et al., 2009; Huang et al., 2011). […] After the blots were incubated with horseradish peroxidase-labeled secondary antibody, the signals were detected using the enhanced chemiluminescence reagents (GE Healthcare Bio-Sciences Corp., Piscataway, N.J.).

[2] = tested on: miR-203 and miR-542-3p expression levels; test: qRT-PCR (TaqMan miRNA assays) of miRNA levels after mimic transfection; format: cell-based, human; details: SKBR3.B3.1 and SKBR3.B3.2 cells, 24 hrs, normalized to RNU6B, vs control mimic
Source text: (§3) FIGS. 1A-B. Transfection of the mimics of miR-203 and/or miR-542-3p dramatically increases their expression levels and specifically down-regulates Survivin, but not other functionally related molecules, such as Mcl-1 and Bcl-xL. SKBR3.B3.1 and […] cells were transfected with either control miRNA mimic, or miR-203 mimic, or miR-542-3p mimic alone, or the combination of miR-203 and miR-542-3p mimics for 24 hrs. (FIG. 1A) Cells were collected and subjected to total RNA extraction, inclusive of the small RNA fraction. The expression levels of miR-203 and miR-542-3p were measured by qRT-PCR using TaqMan miRNA assays. All results were normalized with the internal control RNU6B. Bars, SD. […] (FIG. 1B) Cells were collected and subjected to western blot analyses with specific antibodies directed against Survivin, Mcl-1, Bcl-xL, or β-actin. The densitometry analyses of Survivin signals were shown underneath, and the arbitrary numbers indicate the intensities of each cell line relative to controls, defined as 1.0.
Analysis of miRNA expression. […] The expression levels of miR-203 and miR-542-3p were then measured by quantitative real-time (qRT)-PCR using TaqMan MicroRNA Assays (Assay ID: 000507 and 001284, respectively; Applied Biosystems). […] The relative miRNA levels were calculated using the comparative Ct method (AACt) as reported (Howe et al., 2011). […]

[3] = tested on: PARP cleavage and caspase-3 activation; test: Western blot of PARP cleavage and cleaved caspase-3 after mimic transfection plus paclitaxel; format: cell-based, human; details: SKBR3.B3.1 and SKBR3.B3.2 cells, mimic 24 hrs then paclitaxel 24 hrs; for paclitaxel-induced PARP cleavage and caspase-3 activation (cleaved caspase-3): vs paclitaxel alone in control mimic transfection
Source text: (FIGS. 3A-B) SKBR3.B3.1 and SKBR3.B3.2 cells were transfected with either control miRNA mimic, or miR-203 mimic, or miR-542-3p mimic alone, or the combination of miR-203 and miR-542-3p mimics for 24 hrs. Cells were then untreated or treated with paclitaxel for another 24 hrs. Cells were collected and subjected to western blot analyses of PARP, cleaved caspase-3 (C-Caps-3), β-actin (FIG. 3A), or a specific apoptotic ELISA (FIG. 3B). C & D, BT474-HR20 cells were transfected with either control miRNA mimic, or miR-203 mimic, or miR-542-3p mimic alone, or the combination of miR-203 and miR-542-3p mimics for 24 hrs. Cells were then untreated or treated with paclitaxel for another 24 hrs. Cells were collected and subjected to western blot analyses of PARP, cleaved caspase-3 (C-Caps-3), or β-actin (FIG. 3C), or a specific apoptotic ELISA (FIG. 3D).
(§4) Transfection of cells with miRNA mimic. Cell transfection with the miRIDIAN miRNA mimics or negative controls was carried out using HiPerFect Transfection Reagent (QIAGEN) according to the manufacturer's protocol.
(§5) Western blot analysis. Protein expression levels were determined by western blot analysis as described previously (Wang et al., 2010; Huang et al., 2009; Huang et al., 2011). Equal amounts of total cell lysates were boiled in Laemmli SDS-sample buffer, resolved by SDS-PAGE, transferred to nitrocellulose membrane (Bio-Rad Laboratories, Hercules, Calif.), and probed with the primary antibodies described in the figure legends. After the blots were incubated with horseradish peroxidase-labeled secondary antibody, the signals were detected using the enhanced chemiluminescence reagents (GE Healthcare Bio-Sciences Corp., Piscataway, N.J.).

[4] = tested on: Mcl-1; test: Western blot of Mcl-1 protein after miRNA mimic transfection; format: cell-based, human; details: SKBR3.B3.1 and SKBR3.B3.2 cells, mimic transfection 24 hrs
Source text: as §1, §2

[5] = tested on: Survivin; test: Western blot of Survivin protein after miRNA mimic transfection in erbB2+ breast cancer cells; format: cell-based, human; details: mimic transfection 24 hrs
Source text: as §3
MDA-MB-453 and BT474 cells (FIG. 2A), and BT474-HR20 cells (FIG. 2B) were transfected with either control miRNA mimic, or miR-203 mimic, or miR-542-3p mimic alone, or the combination of miR-203 and miR-542-3p mimics for 24 hrs. Cells were then collected and subjected to western blot analyses with specific antibodies directed against Survivin, Mcl-1, Bcl-xL, or β-actin. The densitometry analyses of Survivin signals were shown underneath, and the arbitrary numbers indicate the intensities of each cell line relative to controls, defined as 1.0.
as §4, §5

[6] = tested on: HCC cells; details: expression of miR-203 in HCC cells lacking their expression; cited from earlier work
[7] = tested on: 18rRNA; details: overexpression of miR-542-3p; cited from earlier work
[8] = tested on: cancer cell proliferation; details: ectopic expression; through G1 and G2/M cell cycle arrest; cited from earlier work
[9] = tested on: Survivin; details: cells transfected with miR-542-3p mimics vs negative control-transfected cells; cited from earlier work
[10] = tested on: Src-transformed fibroblasts and human cancer cells; details: ectopic expression in Src-transformed fibroblasts and human cancer cells; cited from earlier work
[11] = MDA-MB-453, BT474 and BT474-HR20 cells
[12] = SKBR3.B3.1 and SKBR3.B3.2 cells, vs control mimic

Substance | effect on BCl-xL protein [1] | expression levels of miR-203 and/or miR-542-3p following mimic(s) transfection [2] | paclitaxel-induced PARP cleavage and caspase-3 activation (cleaved caspase-3) [3] | effect on MCl-1 protein [4] | protein levels of Survivin [5, 11] | protein levels of Survivin [5, 12] | cell growth [6] | 18rRNA levels [7] | cancer cell proliferation [8] | gene down-regulation in microarray analysis [9] | tumor growth [10] | enhancement of paclitaxel-induced PARP cleavage and caspase-3 activation compared with the other single mimic [3] | inhibition on Survivin compared with the other single mimic ([5]; SKBR3.B3.1 and SKBR3.B3.2 cells)
miR-203: miRIDIAN miRNA specific mimic of miR-203 (sequence GUGAAAUGUUUAGGACCACUAG, MIMAT0000264), purchased from Thermo Scientific Dharmacon (commercial miRIDIAN mimic, chemistry not given here) | no effect | dramatically increased | clearly enhanced paclitaxel-induced PARP cleavage | no effect | able to down-regulate Survivin | clearly reduced the protein levels of Survivin | inhibited cell growth | – | – | – | – | – | –
miR-542-3p: miRIDIAN miRNA specific mimic of miR-542-3p (sequence UGUGACAGAUUGAUAACUGAAA, MIMAT0003389), purchased from Thermo Scientific Dharmacon (commercial miRIDIAN mimic, chemistry not given here) | no effect | dramatically increased | clearly enhanced paclitaxel-induced PARP cleavage | no effect | able to down-regulate Survivin | clearly reduced the protein levels of Survivin | – | significantly decreased | inhibited cancer cell proliferation | most down-regulated candidate gene was Survivin | suppresses tumor growth | more profound effects than miR-203 | more profound inhibition on Survivin than miR-203
